Measurements as given in patent US12435032B2, “L-γ-methyleneglutamine compounds and methods of use” (University of Mississippi, priority 2019, dated 2025).
Where two headings read alike, the source gives them in different places.

Tests used:
[1] = test system: MCF-10A non-cancerous breast cells; experiment: Growth inhibition of MCF-10A cells (negative control line); assay type: cell-based; settings: Homo sapiens, dose-response 0.32-320 μM
Protocol: (§1) Olaparib was chosen because it is one of a few FDA-approved chemotherapeutics for triple-negative breast cancer.
(§2) Cells were incubated for 15 minutes at 37° C.

[2] = test system: triple-negative MDA-MB-231 breast cancer cells
[3] = test system: triple-negative MDA-MB-231 breast cancer cells; experiment: cells; settings: Homo sapiens, read-out: Cytotoxicity EC50
[4] = test system: MCF-7 (ER+/PR+/HER2−) breast cancer cells; experiment: Growth inhibition of MCF-7 cells (Hoechst 33342 fluorescence vs non-treated wells); assay type: cell-based; settings: Homo sapiens, dose-response 0.32-320 μM
Protocol: as §1, §2

[5] = test system: SK-BR-3 breast cancer cells; experiment: Cytotoxicity (cell death, propidium iodide) in SK-BR-3 cells; assay type: cell-based; settings: for EC50: Homo sapiens, dose-response 0.32-320 μM
[6] = Cytotoxicity (cell death, propidium iodide) in MCF-10A cells; assay type: cell-based; settings: human, MCF-10A non-cancerous breast cells
Protocol: To assess the selectivity of cytotoxicity for cancer cells, all drugs and compounds were screened against MCF-10A, non-cancerous breast cells.
as §2

[7] = test system: triple-negative MDA-MB-231 breast cancer cells; experiment: Growth inhibition of MDA-MB-231 cells; assay type: cell-based; settings: dose-response 0.32-320 μM; for IC50: Homo sapiens
Protocol: as §1, §2

[8] = test system: MCF-7 breast cancer cells; experiment: Cytotoxicity (cell death, propidium iodide) in MCF-7 cells; assay type: cell-based; settings: Homo sapiens, MCF7, dose-response 0.32-320 μM, read-out: Cytotoxicity EC50
[9] = test system: SK-BR-3 (ER−/PR−/HER2+) breast cancer cells; experiment: Growth inhibition of SK-BR-3 cells; assay type: cell-based; settings: Homo sapiens, dose-response 0.32-320 μM
Protocol: as §1, §2

For `C=C(C[C@H](N)C(=O)O)C(=O)Nc1ccccc1` [Compound 3, (S)-2-amino-4-(phenylcarbamoyl) pent-4-enoic acid], the IC50 ([1]; 24 h exposure) was greater than 1000 µM, the IC50 ([1]; 72 h exposure) was greater than 1000 µM and the “cytotoxic EC50 compared with positive controls” value [2] was “significantly greater than tamoxifen”. For the same compound, the EC50 ([3]; MDA-MB-231, 24 h) was 541 µM, the EC50 ([3]; MDA-MB-231, 72 h) was 409 µM and the IC50 ([4]; MCF7, 24 h, MCF-7, 24 h exposure) was greater than 1000 µM. The IC50 ([4]; MCF7, 72 h, MCF-7, 72 h exposure) was 250 µM, the EC50 ([5]; SK-BR-3, 24 h exposure) was 0.2 µM and the EC50 ([5]; SK-BR-3, 72 h exposure) was greater than 1000 µM. The “cytotoxicity EC50” value ([5]; SK-BR-3, 72 h / after the first 24 h) was “much reduced toxicity”, the EC50 at 24 h ([6]; 24 h exposure) was greater than 1000 µM and the EC50 at 24 h ([6]; head prints 24 h) was greater than 1000 µM. The IC50 ([7]; MDA-MB-231, 24 h exposure) was 777 µM, the IC50 ([7]; MDA-MB-231, 72 h exposure) was 814 µM and the “Growth Inhibition IC50” value ([7]; MDA-MB-231, 72 h exposure) was “poorer potency than olaparib”. The EC50 ([8]; MCF-7, 24 h exposure) was 421 µM, the EC50 ([8]; MCF-7, 72 h exposure) was 2 µM and the IC50 ([9]; SK-BR-3, 24 h exposure) was 36.9 µM. For the same compound, the IC50 ([9]; SK-BR-3, 72 h exposure) was 1.7 µM.
